Laboratory results taken from patent publication US8501713B2, “Drug combinations for the treatment of duchenne muscular dystrophy” (Summit Corporation PLC, priority 2007, dated 2013).

System: Utrophin A promoter linked to a luciferase reporter gene
Experiment: Luciferase reporter assay (murine H2K cells)
Assay type: cell-based
Conditions: for activity at 10 µM: Mus musculus, H2K mdx, read-out: Activity
How it was run: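 Compound at 10 μM final was applied for 48 hrs to plated H2K mdx myoblasts (33° C, 10% CO2, interferon-containing medium) bearing a luciferase gene under the utrophin A promoter. Luminescence from lysed cells served as read-out.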

[1] = luciferase level relative to control, H2K/mdx/Utro A reporter cells, compound 10 μM final concentration
[2] = luciferase reporter assay in murine H2K cells, classified relative to control

Question: With `Clc1ccc(-c2nc3cc(-c4ccc(N5CCOCC5)cc4)ccc3o2)cc1` [Example 291, 2-(4-chlorophenyl)-5-(4-morpholinophenyl)benzo[d]oxazole] as the molecule, how does the activity at 10 µM [1] read?
Answer: Its activity at 10 µM is 201 to 300%.

Question: For `O=[N+]([O-])c1ccc2oc(-c3cccs3)nc2c1` [Example 388, 5-nitro-2-(thiophen-2-yl)benzo[d]oxazole], which activity at 10 µM [1] is on record?
Answer: The activity at 10 µM was < 200%.

Question: How did the activity at 10 µM [1] turn out when `Clc1ccc(-c2nc3cc(-c4ccc(N5CCOCC5)nc4)ccc3o2)cc1` [Example 316, 2-(4-chlorophenyl)-5-(6-morpholinopyridin-3-yl)benzo[d]oxazole] was run?
Answer: The activity at 10 µM was < 200%.

Question: Which activity at 10 µM [1] does the source give for `O=C(Nc1ccc2nc(-c3ccc(Cl)cc3)oc2c1)C1CC1` [Example 353, N-(2-(4-chlorophenyl)benzo[d]oxazol-6-yl)cyclopropanecarboxamide] here?
Answer: The activity at 10 µM was 201 to 300%.

Question: For `COc1ccc(C(=O)Nc2ccc(-c3nc4ccccc4[nH]3)cc2)cc1OC` [Example 494], which Activity [2] is on record?
Answer: Its Activity is “+ (Up to 200% relative to control)”.

Question: How did the activity at 10 µM [1] turn out when `O=[N+]([O-])c1ccc2oc(-c3ccc4c(c3)OCO4)nc2c1` [Example 286, 2-(benzo[d][1,3]dioxol-5-yl)-5-nitrobenzo[d]oxazole] was run?
Answer: Its activity at 10 µM is 301 to 400%.

Question: Which activity at 10 µM [1] does the source give for `Cc1ccc(-c2nc3ccccc3o2)cc1` [Example 173, 2-p-tolylbenzo[d]oxazole] here?
Answer: The activity at 10 µM was 301 to 400%.

Question: `O=C(Nc1ccc2oc(-c3ccc(Cl)cc3)nc2c1)C(F)(F)F` [Example 211, N-(2-(4-chlorophenyl)benzo[d]oxazol-5-yl)-2,2,2-trifluoroacetamide] was tested. Which activity at 10 µM [1] did it give?
Answer: Its activity at 10 µM is 201 to 300%.

Question: Which Activity [2] does the source give for `Cc1ccc(NC(=O)C(=O)c2c[nH]c3ccccc23)c(Br)c1` [Example 663] here?
Answer: The Activity was “+++ (Between 301% and 400% relative to control)”.

Question: `CC(C)C(=O)Nc1ccc2ccn(C)c2c1` [Example 378, N-(1-methyl-1H-indol-6-yl)isobutyramide] was tested. Which activity at 10 µM [1] did it give?
Answer: The activity at 10 µM was < 200%.

Question: `O=C(O)c1cccc(-c2ccc3oc(-c4ccc(Cl)cc4)nc3c2)c1` [Example 313, 3-(2-(4-chlorophenyl)benzo[d]oxazol-5-yl)benzoic acidd] was tested. Which Activity [1] did it give?
Answer: Its Activity is “+ (Up to 200% relative to control)”.

Question: How did the Activity [2] turn out when `Nc1cc(-c2nc3ccccc3[nH]2)ccc1Cl` [Example 653] was run?
Answer: The Activity was “+++ (Between 301% and 400% relative to control)”.

Question: With `O=C(Nc1nc2ccc(F)cc2s1)c1cccs1` [Example 658] as the molecule, how does the Activity [2] read?
Answer: Its Activity is “+++ (Between 301% and 400% relative to control)”.

Question: Which activity at 10 µM [1] does the source give for `CC(C)C(=O)Nc1ccc2oc(-c3ccccc3)cc2c1` [Example 396, N-(2-phenylbenzofuran-5-yl)isobutyramide] here?
Answer: The activity at 10 µM was > 401%.

Question: Which activity at 10 µM [1] does the source give for `Nc1ccc2sc(-c3cccc(Cl)c3Cl)nc2c1` [Example 307, 2-(2,3-dichlorophenyl)benzo[d]thiazol-5-amine] here?
Answer: Its activity at 10 µM is 301 to 400%.

Question: With `COc1ccc(-c2nc3cc(NC(=O)C(C)C)ccc3o2)cc1` [Example 139, N-(2-(4-methoxyphenyl)benzo[d]oxazol-5-yl)isobutyramide] as the molecule, how does the activity at 10 µM [1] read?
Answer: Its activity at 10 µM is 201 to 300%.

Question: `Cc1ccc2nc(-c3ccc(NC(=O)CSc4nnc[nH]4)cc3)sc2c1` [Example 654] was tested. Which Activity [2] did it give?
Answer: The Activity was “+++ (Between 301% and 400% relative to control)”.

Question: `Cc1ccc(C(=O)Nc2ccc3c(c2)ncn3C)cc1` [Example 670] was tested. Which Activity [2] did it give?
Answer: The Activity was “++ (Between 201% and 300% relative to control)”.

Question: `Nc1ccc(-c2nc3ccccc3s2)cc1` [Example 601] was tested. Which Activity [2] did it give?
Answer: Its Activity is “+++ (Between 301% and 400% relative to control)”.

Question: `CCCC(=O)Nc1ccc2oc(-c3ccccc3F)nc2c1` [Example 242, N-(2-(2-fluorophenyl)benzo[d]oxazol-5-yl)butyramide] was tested. Which activity at 10 µM [1] did it give?
Answer: The activity at 10 µM was < 200%.

Question: How did the activity at 10 µM [1] turn out when `Cc1cccc(-c2nc3cc(NC(=O)C(C)C)ccc3o2)c1` [Example 202, N-(2-m-tolylbenzo[d]oxazol-5-yl)isobutyramide] was run?
Answer: Its activity at 10 µM is > 401%.

Question: How did the Activity [2] turn out when `Cc1ccc2[nH]c(-c3ccc([N+](=O)[O-])cc3)nc2c1` [Example 605] was run?
Answer: Its Activity is “+++ (Between 301% and 400% relative to control)”.

Question: How did the Activity [2] turn out when `COc1ccc(CSc2nc3ccccc3[nH]2)cc1` [Example 640] was run?
Answer: The Activity was “+++ (Between 301% and 400% relative to control)”.

Question: Which activity at 10 µM [1] does the source give for `Cc1ccc(-c2nc3cc(NC(=O)C(C)C)ccc3s2)cc1` [Example 217, N-(2-p-tolylbenzo[d]thiazol-5-yl)isobutyramide] here?
Answer: Its activity at 10 µM is > 401%.

Question: `CCc1ccc2oc(-c3cc(N)ccc3O)nc2c1` [Example 551] was tested. Which Activity [2] did it give?
Answer: The Activity was “+ (Up to 200% relative to control)”.

Question: Which activity at 10 µM [1] does the source give for `O=[N+]([O-])c1ccc2nc(-c3ccccc3)oc2c1` [Example 130, 6-nitro-2-phenylbenzo[d]oxazole] here?
Answer: The activity at 10 µM was 201 to 300%.

Question: With `Nc1ccc2oc(-c3ccccc3)nc2c1` [Example 14, 2-phenylbenzo[d]oxazol-5-amine] as the molecule, how does the activity at 10 µM [1] read?
Answer: Its activity at 10 µM is 301 to 400%.

Question: `CCN(CC)c1ccc(-c2nc3cc(NC(=O)Cc4ccccc4)ccc3o2)cc1` [Example 73, N-(2-(4-(diethylamino)phenyl)benzo[d]oxazol-5-yl)-2-phenylacetamide] was tested. Which activity at 10 µM [1] did it give?
Answer: The activity at 10 µM was 201 to 300%.

Question: With `CCC(=O)c1ccc2oc(-c3ccc(Cl)cc3)nc2c1` [Example 417, 1-(2-(4-chlorophenyl)benzo[d]oxazol-5-yl)propan-1-one] as the molecule, how does the activity at 10 µM [1] read?
Answer: The activity at 10 µM was > 401%.

Question: With `CCCC(=O)Nc1ccc2[nH]c(-c3ccccc3)nc2c1` [Example 194, N-(2-phenyl-1H-benzo[d]imidazol-5-yl)butyramide] as the molecule, how does the activity at 10 µM [1] read?
Answer: The activity at 10 µM was 201 to 300%.

Question: `O=[N+]([O-])c1ccc2nc(-c3ccccn3)oc2c1` [Example 223, 6-nitro-2-(pyridin-2-yl)benzo[d]oxazole] was tested. Which activity at 10 µM [1] did it give?
Answer: Its activity at 10 µM is < 200%.

Question: `Cc1ccc2nc(-c3ccc(NC(=O)c4ccccc4C(=O)O)cc3)sc2c1` [Example 545] was tested. Which Activity [2] did it give?
Answer: The Activity was “+ (Up to 200% relative to control)”.

Question: Which activity at 10 µM [1] does the source give for `O=C(Nc1ccc2oc(-c3cccnc3)nc2c1)c1cccnc1` [Example 81, N-(2-(pyridin-3-yl)benzo[d]oxazol-5-yl)nicotinamide] here?
Answer: Its activity at 10 µM is < 200%.

Question: With `CCS(=O)(=O)c1ccc2oc(-c3ccc(Cl)c(Cl)c3)nc2c1` [Example 301, 2-(3,4-diChlorophenyl)-5-(ethylsulfonyl)benzo[d]oxazole] as the molecule, how does the activity at 10 µM [1] read?
Answer: Its activity at 10 µM is 201 to 300%.

Question: For `Cc1ccc(-c2nc3cc(NC(=O)C(C)C)ccc3[nH]2)cc1` [Example 175, N-(2-p-tolyl-1H-benzo[d]imidazol-5-yl)isobutyramide], which activity at 10 µM [1] is on record?
Answer: Its activity at 10 µM is < 200%.

Question: `O=C(Nc1ccc2oc(-c3cccnc3)nc2c1)c1ccc(C(F)(F)F)cc1` [Example 46, N-(2-(pyridin-3-yl)benzo[d]oxazol-5-yl)-4-(trifluoromethyl)benzamide] was tested. Which activity at 10 µM [1] did it give?
Answer: The activity at 10 µM was < 200%.

Question: Which activity at 10 µM [1] does the source give for `CCN(CC)c1ccc(-c2nc3cc(N)ccc3o2)cc1` [Example 16, 2-(4-(diethylamino)phenyl)benzo[d]oxazol-5-amine] here?
Answer: Its activity at 10 µM is 201 to 300%.

Question: `CCS(=O)(=O)c1ccc2oc(-c3ccc(Cl)cn3)nc2c1` [Example 393, 2-(5-chloropyridin-2-yl)-5-(ethylsulfonyl)benzo[d]oxazole] was tested. Which activity at 10 µM [1] did it give?
Answer: Its activity at 10 µM is 201 to 300%.

Question: For `CN(C)c1ccc(C(=O)Nc2ccc3oc(-c4ccccc4)nc3c2)cc1` [Example 27, 4-(dimethylamino)-N-(2-phenylbenzo[d]oxazol-5-yl)benzamide], which activity at 10 µM [1] is on record?
Answer: The activity at 10 µM was < 200%.

Question: `Nc1ccc2sc(-c3ccccc3Cl)nc2c1` [Example 282, 2-(2-chlorophenyl)benzo[d]thiazol-5-amine] was tested. Which activity at 10 µM [1] did it give?
Answer: Its activity at 10 µM is > 401%.

Question: With `COc1cccc(-c2nc3ccccc3s2)c1` [Example 606] as the molecule, how does the Activity [2] read?
Answer: The Activity was “+++ (Between 301% and 400% relative to control)”.

Question: How did the activity at 10 µM [1] turn out when `COc1ccc(C(=O)Nc2ccc3oc(-c4ccc(C)cc4)nc3c2)cc1` [Example 20, 4-methoxy-N-(2-p-tolylbenzo[d]oxazol-5-yl)benzamide] was run?
Answer: Its activity at 10 µM is < 200%.
